Consider two compounds from PMC5552351, “Bacteriological profiling of diphenylureas as a novel class of antibiotics against methicillin-resistant Staphylococcus aureus” (PLoS ONE, 2017).

In brackets after ≈: the same amount, converted by molar mass.

Data set [1] concerns human keratinocyte cell line. Set-up: method as in PMID 28249208. Particulars: human keratinocytes; ref [21]; cited from earlier work.
In a further data set the test system is MRSA NRS387 (USA800). Kind of data set: broth microdilution MIC/MBC. It is filed as cell-based. Particulars: Staphylococcus aureus, MRSA NRS387 (USA800); for MBC: read-out: MBC; for MIC: read-out: MIC. The method, then:
(§1) The broth microdilution assay was employed to determine the MIC of compounds 1, 2, and vancomycin against five MRSA strains, four VRSA strains, one highly mupirocin-resistant S. aureus strain, one biofilm-forming S. aureus (ATCC 6538) strain, and one biofilm-forming methicillin-resistant S. epidermidis strain, as per the guidelines of the Clinical and Laboratory Standards Institute (CLSI). […] The MBC was determined by plating an aliquot (5 μL) from wells with no growth onto TSA plates. Plates were incubated at 37 °C for 19 hours before recording the MBC (concentration where no growth was observed on TSA plates).
On the technique in general: Dilution methods test growth across graded concentrations, often in twofold steps.

In a further data set the test system is VRS7. Briefly: broth microdilution MIC/MBC. Particulars: Staphylococcus aureus, VRS7, vancomycin-resistant S. aureus; for MBC: read-out: MBC; for MIC: read-out: MIC. It is filed as cell-based. On the procedure: as §1
Data set [2] has as its system S. aureus ATCC 6538 biofilm. Briefly: bacterial CFU inside mature biofilm post-treatment. In kind it is cell-based, Staphylococcus aureus. Particulars: 24 hours. On the procedure:
Compounds 1, 2, and vancomycin were examined for their ability to eradicate mature staphylococcal biofilm using the microtiter dish biofilm formation assay. S. epidermidis NRS101 and S. aureus ATCC 6538 were selected as the test organisms given their ability to form strong adherent biofilm. An overnight culture of bacteria was diluted (1:100 in TSB + 1% glucose) and transferred to a 96-well plate. The plate was incubated for 24 hours at 37 °C in order to form adherent biofilm on the surface of the plate wells. The medium containing the bacterial suspension was removed and the biofilm was washed with sterile PBS to remove planktonic cells. Compounds 1, 2, or vancomycin (from 128 to 1 μg/mL), in triplicate, in TSB were incubated with the biofilm for 24 hours at 37 °C.
For enumeration of viable CFU inside the biofilm, compounds were removed, wells were washed with sterile PBS, and treated with 0.25% Trypsin-2.21 mM EDTA solution as described elsewhere. The solution containing cells was transferred to a 96-well plate, serially diluted in PBS, and plated on TSA. Plates were incubated at 37 °C for 19 hours before viable CFU were counted. Data are presented as average log10(CFU/mL) of bacteria present in the biofilm post-treatment.

The next data set concerns MRSA USA400 (NRS123). Briefly: multi-step resistance selection. In kind it is cell-based, Staphylococcus aureus. To be noted: for increase in MIC after fourteen passages: MRSA USA400 (NRS123), fourteen passages over two weeks. The method, then: To assess MRSA’s ability to develop resistance to the diphenylurea compounds after repeated exposure, a multi-step resistance selection experiment was conducted. […] Resistance was classified as a greater than four-fold increase in the initial MIC, as reported elsewhere.

The subject of another data set is Bacillus subtilis. Kind of data set: Bacterial Cytological Profiling (BCP). It is filed as cell-based. Particulars: two hours, LB-MSM osmotically buffered media, 37 °C. On the procedure: B. subtilis cells were grown in Luria Bertani (LB) medium at 37 °C until the optical density at 600 nm (OD600) was ~0.20. Cells were then left untreated or treated with compound 1 or control antibiotics in the presence of methylsulfonylmethane (MSM), as described previously. After two hours, cells were stained with FM 4−64 (1 μg/mL) to visualize cell membranes; DAPI (1 μg/ml) to visualize DNA, and SYTOX Green (1 μg/mL), a vital stain which is normally excluded from cells with an intact membrane but brightly stains cells that are lysed. Images were collected using a Delta Vision Spectris Deconvolution microscope, as described previously.

The next data set deals with VRS10. Briefly: microbe, parasite or virus in culture. It is filed as cell-based, Staphylococcus aureus. To be noted: VRS10, compound at ½ × MIC. The method, then:
(§2) CAMHB was inoculated with strain VRS4 or strain VRS10 (5×10^5 CFU/mL), as described previously, with the following modifications. Aliquots ([…]) of the bacterial suspension were divided into micro-centrifuge tubes and compounds 1 or 2 (at ½ × MIC) were introduced into each tube. After 30 minutes of incubation at room temperature, samples from each tube were transferred to a new micro-centrifuge tube, prior to addition of vancomycin (at 128 μg/mL). Plates containing the test agents and bacteria were then incubated at 37 °C for 20–22 hours after which the MIC value was determined. A fold-reduction was calculated by comparing the MIC of vancomycin compared to the MIC of vancomycin given in combination with compounds 1 or 2 (at ½ × MIC).

Data set [3] concerns clinically-relevant strains of MRSA and VRSA. Kind of data set: broth microdilution MIC/MBC, panel summary. It is filed as cell-based. To be noted: Staphylococcus aureus, summary over the MRSA isolates of Table 1; read-out: concentration inhibiting growth of MRSA isolates (MIC). The method, then:
as §1

A short description of data set [4]: aqueous solubility assessment (turbidity). It is filed as physicochemical. To be noted: aqueous buffer, kinetic from dmso stock. The method, then: The solutions were diluted 100-fold into PBS in a 96-well plate and mixed. The absorbance of the PBS-containing plate was measured prior to addition of the test agents to determine the background absorbance. After two hours, the presence of precipitate was detected by turbidity (absorbance at 540 nm). […] The solubility limit is reported as the highest experimental concentration with no evidence of turbidity.

In data set [5] the test system is S. aureus NRS107 (RN4220). Briefly: accumulation of UDP-N-acetylmuramyl pentapeptide (HPLC-MS). It is filed as cell-based, Staphylococcus aureus. To be noted: 10 × MIC, 30 minutes. The method, then:
The accumulation of UDP-N-acetylmuramyl pentapeptide was detected using a procedure described in a previous study, with the following modifications. S. aureus NRS107 (RN4220), in early logarithmic growth stage (OD600 ~ 0.60), was incubated with 130 μg/mL chloramphenicol for 15 minutes at 37°C. […] Untreated samples served as a negative control. Samples were centrifuged at 10,000 rpm for five minutes, the supernatant discarded, and the pellet re-suspended in sterile deionzined water (1 mL). The pellet was boiled at […] for 30 minutes before samples were chilled on ice for 10 minutes. UDP-N-acetylmuramyl-pentapeptide was measured using an Agilent High Performance Liquid Chromatography coupled to a time-of-flight Mass Spectrometer (HPLC-MS). A Waters XBridge Phenyl (2.1 × 100 mm, 3.5 μm) chromatography column was used, with mobile phases of water, 0.1% formic acid (Buffer A) and acetonitrile, 0.1% formic acid (Buffer B). A gradient of 5–20% Buffer B over 14 minutes was used, with a flow rate of 0.3 mL/min. An electrospray source was used, in positive ionization mode. Extracted Ion Chromatograms (EIC) were generated at a mass-to-charge ratio (m/z) of 1150.3588 (20 ppm window). Mass error for UDP-N-acetylmuramyl-pentapeptide was <1 ppm.

The subject of a further data set is VRS4. Briefly: microbe, parasite or virus in culture. In kind it is cell-based, Staphylococcus aureus. Particulars: VRS4, compound at ½ × MIC. The method, then: as §2
Another data set has as its system MRSA. Set-up: method as in PMID 28249208. To be noted: C. elegans; ref [21]; cited from earlier work.

Broadly, the MBC is the smallest concentration meeting the test's criterion for killing. By solubility is commonly meant the concentration that dissolves in the medium under given conditions. The low end stands for little dissolved substance, the high end for much dissolved substance.

Turning to `C/C(=N\NC(=N)N)c1ccc(NC(=O)Nc2ccc(OCCC(C)C)cc2)cc1` [compound 1], the “non-toxic up to (concentration)” value in [1] was 32 µg/mL. In addition, the MBC with MRSA NRS387 (USA800) is 4 µg/mL (≈ 10.1 µM); in the data set on VRS7, 8 µg/mL (≈ 20.2 µM). The MIC in the data set on MRSA NRS387 (USA800) is 4 µg/mL (≈ 10.1 µM); in the data set on VRS7 it was 8 µg/mL (≈ 20.2 µM); in the data set with MRSA USA400 (NRS123) (Staphylococcus aureus, read-out: initial MIC), 8 µg/mL (≈ 20.2 µM); in data set [3], at least 4 µg/mL. Besides, the “reduction in bacterial CFU within S. aureus biofilm” value in data set [2] (64 μg/mL) is on record as 0.9 log10; in data set [2] (128 μg/mL), 3.0 log10. Also, the “increase in MIC after fourteen passages” value in the data set with MRSA USA400 (NRS123) is reported as “No increase”. Moreover, the “cytological profile (cell morphology)” value in the data set on Bacillus subtilis is “cell shape defects”. The “Fold re-sensitization of VRSA to vancomycin” value in the data set with VRS10 is 3-fold. Moreover, the solubility at 2 h in data set [4] worked out at 23.9 µg/mL (≈ 60.4 µM). Besides, in [5], the UDP-N-acetylmuramyl pentapeptide accumulation result is listed as “notable increase”.

On to `C/C(=N\NC(=N)N)c1ccc(NC(=O)Nc2ccc(OC3CCCCCC3)cc2)cc1` [compound 2], for which the “non-toxic up to (concentration)” value in [1] is 64 µg/mL. For the same compound, the MBC with MRSA NRS387 (USA800) and in the data set on VRS7 was 16 µg/mL (≈ 37.9 µM) throughout. The figures for the MIC (in the data set on MRSA NRS387 (USA800); with VRS7; in data set [3]) were 8 µg/mL (≈ 18.9 µM), 16 µg/mL (≈ 37.9 µM) and at least 4 µg/mL, respectively. In addition, the entries for the “reduction in bacterial CFU within S. aureus biofilm” value in data set [2] (64 μg/mL) and in data set [2] (128 μg/mL) were 0.8 log10 and 1.76 log10, respectively. In addition, in the data set on MRSA USA400 (NRS123), the “increase in MIC after fourteen passages” value is “No increase”. Moreover, the “Fold re-sensitization of VRSA to vancomycin” value with VRS4 is 7-fold. This compound also displayed a solubility at 2 h in data set [4] of 5.15 µg/mL (≈ 12.2 µM). Further, the “reducing the burden of MRSA in infected worms” value with MRSA is “superior to vancomycin”.
